Consider 1 molecule from publication PMC10707934, “Design and Synthesis of Novel α-Methylchalcone Derivatives, Anti-Cervical Cancer Activity, and Reversal of Drug Resistance in HeLa/DDP Cells” (Molecules, 2023).

Common to all, as to format: cell-based, human
Assay [1] has as its system α-tubulin, β-tubulin in HeLa/DDP cells. Nature of the assay: Immunofluorescence assay of microtubules, HeLa/DDP. To be noted: 24 h, 3k 1, 2, and 4 μM, paclitaxel 2.0 μM. How it is done: (§1) The cells were then fixed by adding 400 μL of 4% paraformaldehyde to each well and incubating for 30 min. 0.1% Triton was added at a volume of 400 μL per well and allowed to incubate for 10 min. Following this, goat serum (10%) was added at 400 μL per well and incubated for 40 min. Primary antibodies (α-tubulin, β-tubulin) were then incubated overnight at a temperature of 4 °C. Subsequently, secondary antibodies (α-mouse, β-rabbit) were incubated for 1.5 h. DAPI staining was performed at 400 μL per well for 5 min, followed by a wash with PBS. Cell climbing tablets were removed and inverted onto slides with sealer. Photographs were captured using a fluorescent inverted microscope.

The subject of assay [2] is α-tubulin, β-tubulin in HeLa cells. Briefly: Immunofluorescence assay of microtubules, HeLa. The following applies: 24 h, 3k 1, 2, and 4 μM, colchicine and paclitaxel 2.0 μM. As for the experimental part: as §1
The subject of assay [3] is α-/β-tubulins in HeLa/DDP cells. Briefly: Western blot of polymerized and dissociated α-/β-tubulins, HeLa/DDP. The following applies: 24 h, versus control. How it is done:
(§2) HeLa cells were cultured in 60 mm Petri dishes at a density of 1.0 × 10^6 cells per dish and treated with 0.1% DMSO (vehicle), positive control chalcone (20 μM), and different concentrations of compound 3k (2.5, 5, and 10 μM), respectively. Following a 24 and 48 h incubation period, the cells were harvested via centrifugation and subsequently washed twice with PBS that had been chilled to 0 °C. Next, the cells were homogenized using RIPA lysis buffer (Solarbio, Beijing, China) and supplemented with 1% PMSF (MP Biomedicals, 0754-25G, CAS:329-98-6, Santa Ana, CA, USA) and 1% mixed phosphatase inhibitor (Solarbio, Beijing, China). The resulting lysates were then incubated on ice for 30 min, intermittently vortexed every 5 min, and subsequently centrifuged at 12,000 rpm for 20 min to collect the supernatants.
(§3) Subsequently, the protein concentrations were determined utilizing a BCA Protein Assay Kit (Solarbio, China). An equivalent quantity of the proteins (12 μg) was fractionated via 8–12% sodium dodecyl sulfate–polyacrylamide gel electrophoresis (SDS-PAGE) and transferred onto nitrocellulose membranes (Amersham Biosciences, Amersham, UK). Following this, the membranes were obstructed with 5% nonfat dried milk in TBS containing 1% Tween-20 for a duration of 2 h at ambient temperature and were subjected to overnight incubation with specific primary antibodies (CST, Boston, MA, USA) at 4 °C. Following three washes in TBST, the membranes were subjected to incubation with the suitable HRP-conjugated secondary antibodies at ambient temperature for a duration of 2 h. The blots were subsequently visualized using enhanced chemiluminescence (Biosharp, Shanghai, China) and detected utilizing a PE 0723 imager (ProteinSimple, Silicon Valley, CA, USA). Each experiment was conducted in triplicate at minimum and analyzed employing Image J software (V1.8.0.112). β-actin(ab198991) rabbit mAb, goat anti-rabbit IgG (H + L) HRP—#S0001 (Affinity). Bax (ab289364), Bcl-2 (ab218123), MDR1/ABCB1 (E1Y7B) rabbit mAb #13342 (CST).
(§4) Polymerized and free microtubule proteins were extracted using the methods described in references, respectively. Following drug intervention, the cells were subjected to two washes with preheated microtubule protein buffer MTSB at 37 °C. Subsequently, 70 μL of MTSB was added, and the cells were lysed for 10 min at 37 °C in a constant temperature chamber shielded from light. The cells were then scraped with a spatula and centrifuged at 14,000 r/min for 10 min at room temperature. The resulting supernatant, which represented the free state microtubule protein suspension, was subsequently removed. The remaining precipitate was treated with RIPA lysis solution, followed by lysis on ice for a duration of 30 min. Subsequently, centrifugation was performed at a temperature of 4 °C and a speed of 12,000 revolutions per minute for a duration of 20 min. The resulting supernatant was collected as a suspension of polymerized microtubule protein. The Western blotting procedure was the same as in Section 3.3.4. α-Tubulin (DM1A) Mouse mAb#3873 (CST), β-Tubulin (D2N5G) Rabbit mAb #15115 (CST), CoraLite488-conjugated Goat Anti-Mouse lgG(H+L) (Proteintech); CoraLite488-conjugated Goat Anti-Rabbit lgG(H+L) (Proteintech); β-actin(ab198991) rabbit mAb, Goat Anti-Mouse IgG H&L (HRP) (ab6789); Goat anti-Rabbit IgG (H+L) HRP—#S0001 (Affinity).
On the technique in general: Immunoblotting shows a protein as a band on a membrane.

Another assay concerns HeLa/DDP cells. Nature of the assay: MTT anti-cisplatin-resistant cervical cancer activity, HeLa/DDP. To be noted: 48 h. As for the experimental part: (§5) All cell types, at a volume of 200 µL per well, were inoculated in 96-well plates at a density of 2.5 × 10^4 cells / mL and cultured for 24 h in an incubator with 5% CO2 at 37 °C. The old culture medium was replaced with 200 µL of fresh medium per well containing positive compounds, at concentrations of 1, 6.25, 12.5, 25, 50, and 100 μM. After 48 h of culture, 20 µL per well of 5 mg·mL^−1 MTT solution was added. After 4 h of culture, the old solution was discarded, and 150 µL per well of DMSO solution was added. Using an enzyme labeler (Thermo Fisher Scientific, Multiskan GO, Waltham, MA, USA), the plates were shaken for 10 min, OD values were determined at 490 nm, and the inhibition rate was calculated. Non-linear regression fitting of the cell growth rate was carried out using SPSS 23.0, and the IC50 of the compound was calculated. The inhibition rate was calculated using the formula: [(ODempty − ODtest)/(ODempty − ODnegative group)] × 100%, (ODempty blank group absorbance, ODtest absorbance of administration group, ODnegative group without cell culture medium). Each group contained six compound holes, and the experimental results averaged three trials. Complete medium containing only cells was used as the blank control; a complete medium without cells as was used as the negative control; and cisplatin, paclitaxel, and adriamycin were used as the positive controls. The concentration gradient was the same as that used for compounds 3a–3p.
To mitigate the detrimental consequences arising from the fixation of resistance reversal agents, concentrations that yielded a tumor cell proliferation rate reduction of less than 10% were selected. Consequently, the inhibitory efficacy of compound 3k against HeLa/DDP cells was assessed in conjunction with cisplatin at concentrations of 0.25, 0.5, and 1 μM. The experimental procedure employed was akin to that elucidated in Section 3.3.2. The impact of verapamil (6 μM) and 3k (0.25, 0.5, and 1 μM) on P-gp expression was ascertained via Western blot experiments, employing the same methodology delineated in Section 3.3.4.

Assay [4] deals with α-/β-tubulins in HeLa cells. Nature of the assay: Western blot of polymerized and dissociated α-/β-tubulins, HeLa. The following applies: 24 h, versus control. As for the experimental part:
as §2, §3, §4

A further assay deals with HeLa cells. Briefly: MTT anti-proliferation assay, HeLa. The following applies: Homo sapiens, 48 h, mean ± SD. How it is done: as §5, with “3a–3p. […]” for “3a–3p.”
A general note: Formazan colour is commonly taken as a measure of viable cells.

Turning to `CC(=O)O[C@H]1C(=O)[C@@]2(C)[C@H]([C@H](OC(=O)c3ccccc3)[C@]3(O)C[C@H](OC(=O)[C@H](O)[C@@H](NC(=O)c4ccccc4)c4ccccc4)C(C)=C1C3(C)C)[C@]1(OC(C)=O)CO[C@@H]1C[C@@H]2O` [Paclitaxel, paclitaxel], the “microtubule immunofluorescence (α green, β red)” value is “no significant alteration in the fluorescence intensity of the microtubules surrounding the cells” in assay [1] and “fluorescence intensity of microtubules surrounding the cells decreased or vanished” in assay [2]. The “expression of dissociated state α and β microtubule proteins” value in assay [3] (3k 4 μM, colchicine and paclitaxel 2.0 μM) is listed as “minimal impact”; in assay [4] (3k 4 μM, colchicine 2 μM, paclitaxel 2.0 μM), “significantly decreased”. Besides, the “expression of polymerized state α and β microtubule proteins” value in assay [3] (positive drugs 2.0 μM) is on record as “did not yield a significant impact”. For the same molecule, the “resistance index (RI)” value with HeLa/DDP cells (HeLa/DDP versus parental HeLa) is 5.66. For the same molecule, the concentration for half-maximal inhibition (IC50) stood at 130 ± 5.84 µM in the assay with HeLa/DDP cells (Homo sapiens, HeLa/DDP, MTT, mean ± SD) and 23 ± 1.33 µM with HeLa cells. For the same molecule, in assay [4] (3k 2 and 4 μM, colchicine and paclitaxel 2.0 μM), the “expression of α and β microtubule proteins in the polymerized state” value is “significantly enhanced”.

As usually defined, the IC50 is the midpoint of a concentration-inhibition curve. High values mean lower potency, low ones higher potency.
